We go through eight compounds from ChEMBL document CHEMBL1141322, “Antiprotozoal polyacetylenes from the Tanzanian medicinal plant Cussonia zimmermannii” (J Nat Prod, 2007).

The term IC50 denotes the point on the concentration scale where inhibition reaches its midpoint. High values mean weaker potency, low ones greater potency.

For assay [1], the system named is Trypanosoma brucei rhodesiense. Briefly: Antiparasitic activity against Trypanosoma brucei rhodesiense by Alamar blue assay. The format is functional, organism-based. (Resazurin is reduced to fluorescent resorufin, in cell work by metabolically active cells.)
Assay [2] relates to Leishmania donovani. Briefly: Antileishmanial activity against Leishmania donovani in mouse macrophages. The format is functional, organism-based.
The nature of assay [3]: Selectivity index, ratio of IC50 for rat L6 cells to IC50 for Leishmania donovani in mouse macrophages. The assay is classed as functional.
Assay [4] concerns Plasmodium falciparum. Briefly: Antiparasitic activity against Plasmodium falciparum. The assay is classed as functional, organism-based.
Assay [5] deals with Leishmania donovani. Briefly: Antileishmanial activity against Leishmania donovani axenic amastigotes. The assay is classed as functional, organism-based.
Assay [6] has as its system Trypanosoma cruzi. Briefly: Antiparasitic activity against Trypanosoma cruzi. The format is functional, organism-based.
Assay [7] concerns L6. Briefly: Cytotoxicity against rat L6 cells by Alamar blue assay. The format is cell-based.
A short description of assay [8]: Selectivity index, ratio of IC50 for rat L6 cells to IC50 for Trypanosoma cruzi. The assay is classed as functional.

Bounds are passed on as bounds.

For the compound `C=CC(C#CC#CC(O)CCCCCCCCC)OC(C)=O` (centres undefined), the IC50 worked out at 460 nM in assay [1]; 320 nM in assay [2]; 1400 nM in assay [4]; 130 nM in assay [5]; 650 nM in assay [6]; 12000 nM in assay [7]. Also, the results for the “Ratio IC50” value in assay [3] and in assay [8] were 37 and 18, respectively.
With `C=CC(C#CC#CC(O)CCCCCCCCCCOC(C)=O)OC(C)=O` (centres undefined), the IC50 in assay [1] was found to be 1100 nM; in assay [2], 2300 nM; in assay [4], 2200 nM; in assay [5], 140 nM; in assay [6], 400 nM; in assay [7], 58000 nM. Further, the “Ratio IC50” value in assay [3] was determined as 26; in assay [8], 150.
In the case of `CCCCCCCCCC(O)C#CC#CC(CC)OC(C)=O` (centres undefined), the IC50 is 18000 nM in assay [1]; over 10000 nM in assay [2]; 19000 nM in assay [4]; 7800 nM in assay [5]; 26000 nM in assay [6]; 54000 nM in assay [7]. For the same compound, the “Ratio IC50” value in assay [3] is under 5.5; in assay [8] it was 2.1.
For the compound `C[C@@H]1CC[C@H]2[C@@H](C)C(=O)O[C@@H]3O[C@@]4(C)CC[C@@H]1[C@]32OO4` [ARTEMISININ], in assay [4], the IC50 amounted to 4.3 nM.
The compound `O=C(Cn1ccnc1[N+](=O)[O-])NCc1ccccc1` [BENZNIDAZOLE] came in with a concentration for half-maximal inhibition (IC50) in assay [6] of 2400 nM.
Turning to `Nc1nc(N)nc(Nc2ccc([As]3SCC(CO)S3)cc2)n1` (centres undefined) [MELARSOPROL], the IC50 in assay [1] amounted to 5.8 nM. That is a single-digit nanomolar value.
In assay [2], `CCCCCCCCCCCCCCCCOP(=O)([O-])OCC[N+](C)(C)C` [MILTEFOSINE] yielded an IC50 of 710 nM.
Consider `COc1cc([C@@H]2c3cc4c(cc3[C@H](O)[C@H]3COC(=O)[C@H]23)OCO4)cc(OC)c1OC` [PODOFILOX], for which the IC50 in assay [7] turned out to be […].
